In patent EP0048954A2, “Beta-lactam compounds, process for the preparation thereof and intermediate products for the preparation thereof” (SAGAMI CHEMICAL RESEARCH CENTER, priority 1980, dated 1982):
In brackets after ≈: the same amount, converted by molar mass. Where a name gives a salt, the structure may show the parent alone. Read-outs that look alike come from different tables or passages of the source.

Legend:
Assay in all cases: Antibacterial activity, minimum inhibition concentration (method of The Chemotherapy Association, Japan)
Format in all cases: cell-based
[1] = tested on: Enterobactor cloacae NCTC-9394; conditions: read-out: minimum inhibition concentration
Method: (§1) Antibacterial activities of the compounds according to this invention, which had been prepared in the preceding Examples, were measured according to the method prescribed by The Committee of Amendment of "The method for measurement of the minimum inhibition concentration", The Chemotherapy Association, Japan (See Chemotherapy, Vol. 22, No. 6, pp. 1126 - 1128 (1974) and Vol. 29, No. 1, pp. 76 - 79 (1981)).
(§2) The abbreviations A to P will be used in the following Tables 2 to 8.
(§3) Test results are shown in terms of the minimum inhibition concentration (µg/mℓ.) in the following Tables 2 to 8.

Escherichia coli NIHJ = conditions: Escherichia coli, read-out: minimum inhibition concentration
Method: as §1, §2, §3

[2] = tested on: Salmonella typhimurium 3173; conditions: Salmonella enterica, TYPHIMURIUM
Method: as §1, §2, §3

Klebsiella pneumoniae = conditions: Klebsiella pneumoniae
Method: as §1, §2, §3

Serratia marcescens 1023 = tested on: Serratia marcescens 1023
Method: as §1, §2, §3

[3] = tested on: Bacillus subtilis ATCC 6633; conditions: Bacillus subtilis
Method: as §1, §2, §3

[4] = tested on: Proteus mirabillis B-30-2 IFO-3849
Method: as §1, §2, §3

[5] = tested on: Staphylococcus aureus 6538-P
Method: as §1, §2, §3

Escherichia coli NIHJC-2 = conditions: Escherichia coli
Method: as §1, §2, §3

[6] = tested on: Citrobactor freundii NIH-10018 -68; conditions: read-out: minimum inhibition concentration
Method: as §1, §2, §3

[7] = tested on: Pseudomonas aeruginosa NCTC-10490; conditions: Pseudomonas aeruginosa
Method: as §1, §2, §3

[8] = tested on: Serratia marcescens IFO-3736; conditions: Serratia marcescens
Method: as §1, §2, §3

Proteus morgani Kono = conditions: read-out: minimum inhibition concentration
Method: as §1, §2, §3

Proteus vulgaris OX-19 = conditions: Proteus vulgaris
Excerpt: as §2, §3

Proteus rettgeri NIH-96 = conditions: Providencia rettgeri
Excerpt: as §2, §3

[9] = strain N: Enterobactor cloacae NCTC-9394
[10] = strain K: Escherichia coli NIHJ
[11] = strain D: Salmonella typhimurium 3173, read-out: minimum inhibition concentration
[12] = strain C: Klebsiella pneumoniae, read-out: minimum inhibition concentration
[13] = Serratia marcescens, 1023, strain E: Serratia marcescens 1023, read-out: minimum inhibition concentration
[14] = ATCC6633, strain B: Bacillus subtilis ATCC 6633, read-out: minimum inhibition concentration
[15] = strain G: Proteus mirabillis B-30-2 IFO-3849, read-out: minimum inhibition concentration
[16] = strain A: Staphylococcus aureus 6538-P, read-out: minimum inhibition concentration
[17] = NIHJC2, strain L: Escherichia coli NIHJC-2, read-out: minimum inhibition concentration
[18] = strain O: Citrobactor freundii NIH-10018 -68
[19] = NCTC10490, strain M: Pseudomonas aeruginosa NCTC-10490, read-out: minimum inhibition concentration
[20] = IFO3736, strain F: Serratia marcescens IFO-3736, read-out: minimum inhibition concentration
[21] = OX19, strain H: Proteus vulgaris OX-19, read-out: minimum inhibition concentration
[22] = NIH96, strain I: Proteus rettgeri NIH-96, read-out: minimum inhibition concentration

| Compound | MIC [1, 9] [µg/mL] | MIC (Escherichia coli NIHJ; [10]) [µg/mL] | MIC [2, 11] [µg/mL] | MIC (Klebsiella pneumoniae; [12]) [µg/mL] | MIC (Serratia marcescens 1023; [13]) [µg/mL] | MIC [3, 14] [µg/mL] | MIC [4, 15] [µg/mL] | MIC [5, 16] [µg/mL] | MIC (Escherichia coli NIHJC-2; [17]) [µg/mL] | MIC [6, 18] [µg/mL] | MIC [7, 19] [µg/mL] | MIC [8, 20] [µg/mL] | MIC (Proteus morgani Kono; strain J: Proteus morgani Kono) [µg/mL] | MIC (Proteus vulgaris OX-19; [21]) [µg/mL] | MIC (Proteus rettgeri NIH-96; [22]) [µg/mL] | other results |
| --- | --- | --- | --- | --- | --- | --- | --- | --- | --- | --- | --- | --- | --- | --- | --- | --- |
| COc1ccc(C(C(=O)NC2C(=O)N3C(C(=O)O)=C(COC(C)=O)CS[C@H]23)=C(Cl)Cl)cc1 (stereo partly drawn) [Compound 27, 7-[2-dichloromethylene-2-(4-methoxyphenyl)acetamido]-3-acetoxymethyl-3-cephem-4-carboxylic acid] | > 100 | 100 (≈ 199 µM) | > 100 | > 100 | 6.25 (≈ 12.5 µM) | 3.12 (≈ 6.23 µM) | > 100 | > 100 | > 100 | > 100 | 100 (≈ 199 µM) | > 100 | > 100 | > 100 | 3.12 (≈ 6.23 µM) |  |
| Cn1nnnc1SCC1=C(C(=O)O)N2C(=O)C(NC(=O)C(=CCl)c3cccs3)C2SC1 (stereo not drawn) [Compound 34, 7-[2-chloromethylene-2-(2-thienyl)acetamido]-3-(l-methyl-lH-tetrazol-5-yl)thiomethyl-3-cephem-4-carboxylic acid] | 12.5 (≈ 25.1 µM) | 1.56 (≈ 3.13 µM) | 12.5 (≈ 25.1 µM) | 100 (≈ 200 µM) | 1.56 (≈ 3.13 µM) | 0.78 (≈ 1.56 µM) | 100 (≈ 200 µM) | 25 (≈ 50.1 µM) | 25 (≈ 50.1 µM) | 100 (≈ 200 µM) | 100 (≈ 200 µM) | 100 (≈ 200 µM) | 100 (≈ 200 µM) | 12.5 (≈ 25.1 µM) | 0.05 (≈ 0.1 µM) |  |
| CC(=O)OCC1=C(C(=O)O)N2C(=O)C(NC(=O)C(=C(Cl)Cl)c3csc(N)n3)[C@H]2SC1 (stereo partly drawn) [5-(2), 7-[2-dichloromethylene-2-(2-aminothiazol-4-yl)acetamido]-3-acetoxymethyl-3-cephem-4-carboxylic acid] | 1.56 (≈ 3.16 µM) | 0.1 (≈ 0.203 µM) | 6.25 (≈ 12.7 µM) | 6.25 (≈ 12.7 µM) | 12.5 (≈ 25.3 µM) | 12.5 (≈ 25.3 µM) | 12.5 (≈ 25.3 µM) | 1.56 (≈ 3.16 µM) | 12.5 (≈ 25.3 µM) | 6.25 (≈ 12.7 µM) | 6.25 (≈ 12.7 µM) | 50 (≈ 101 µM) | 25 (≈ 50.7 µM) | 0.2 (≈ 0.405 µM) | < 0.025 |  |
| CC(=O)OCC1=C(C(=O)[O-])N2C(=O)C(NC(=O)C(=CCl)c3csc(N)n3)[C@H]2SC1.[Na+] (stereo partly drawn) [Compound 20, 7-[2-chloromethylene-2-(2-aminothiazol-4-yl)acetamido]-3-acetoxymethyl-3-cephem-4-carboxylic acid sodium salt] |  |  |  |  |  |  |  |  |  |  |  |  |  |  |  | MIC [1]: 0.78 µg/mL; MIC (Escherichia coli NIHJ): 0.05 µg/mL; MIC ([2]; read-out: minimum inhibition concentration, strain D: Salmonella typhimurium 3173): 3.12 µg/mL; MIC (Klebsiella pneumoniae; read-out: minimum inhibition concentration, strain C: Klebsiella pneumoniae): 1.56 µg/mL; MIC (Serratia marcescens 1023; Serratia marcescens, 1023, read-out: minimum inhibition concentration, strain E: Serratia marcescens 1023): 12.5 µg/mL; MIC ([3]; ATCC6633, read-out: minimum inhibition concentration, strain B: Bacillus subtilis ATCC 6633): 6.25 µg/mL; MIC ([4]; read-out: minimum inhibition concentration, strain G: Proteus mirabillis B-30-2 IFO-3849): 1.56 µg/mL; MIC ([5]; Staphylococcus aureus, 6538P, read-out: minimum inhibition concentration, strain A: Staphylococcus aureus 6538-P): 1.56 µg/mL; MIC (Escherichia coli NIHJC-2; NIHJC2, read-out: minimum inhibition concentration): 3.12 µg/mL; MIC [6]: 1.56 µg/mL; MIC ([7]; NCTC10490, read-out: minimum inhibition concentration): 6.25 µg/mL; MIC ([8]; IFO3736, read-out: minimum inhibition concentration): 6.25 µg/mL; MIC (Proteus morgani Kono): 1.56 µg/mL; MIC (Proteus vulgaris OX-19; OX19, read-out: minimum inhibition concentration, strain H: Proteus vulgaris OX-19): 0.2 µg/mL; MIC (Proteus rettgeri NIH-96; NIH96, read-out: minimum inhibition concentration, strain I: Proteus rettgeri NIH-96): 0.025 µg/mL |
| Cn1nnnc1SCC1=C(C(=O)O)N2C(=O)C(NC(=O)C(=C(Cl)Cl)c3ccco3)C2SC1 (stereo not drawn) [Compound 1, 7-[2-dichloromethylene-2-(2-furyl)acetamido]-3-(1-methyl-IH-tetrazol-5-yl)thiomethyl-3-cephem-4-carboxylic acid] | 6.25 (≈ 12.1 µM) | < 0.025 | 12.5 (≈ 24.2 µM) | 25 (≈ 48.3 µM) | 1.56 (≈ 3.02 µM) | 1.56 (≈ 3.02 µM) | 50 (≈ 96.6 µM) | 0.39 (≈ 0.754 µM) | 25 (≈ 48.3 µM) | 12.5 (≈ 24.2 µM) | 3.12 (≈ 6.04 µM) | 50 (≈ 96.6 µM) | 50 (≈ 96.6 µM) | 0.2 (≈ 0.387 µM) | < 0.025 |  |
| CC1=C(C(=O)O)N2C(=O)C(NC(=O)C(=CCl)c3csc(N)n3)C2SC1 (single isomer, unassigned) [Compound 23, 7-[2-chlromethylene-2-(2-aminothiazol-4-yl)acetamido]-desacetoxycephelosporanic acid sodium salt] | 12.5 | 6.25 | 50 | 50 | 100 | 50 | 25 | 3.12 | 100 | 100 | > 100 | > 100 | > 100 | 12.5 | 0.39 |  |
